# Measurements from patent US20130078287A1 (Horizon Pharma USA, Inc., priority 2010, published 2013).
# Marks after values point to notes of the source that are not given here.
# Key:
# [1] = tested on: subjects expected to require daily NSAID therapy; assay: REDUCE-1 study: endoscopically diagnosed gastric, duodenal and UGI ulcers; assay type: in vivo, human; conditions: for Proportion of subjects with Duodenal Ulcer / Proportion of subjects with Gastric Ulcer / Proportion of subjects with UGI Ulcer / UGI Ulcer: Subjects with Low-dose Aspirin Use / UGI Ulcer: Subjects with Prior Ulcer: REDUCE-1, 24 weeks
# Procedure: (§1) Subjects were deemed a treatment failure and terminated early from the study in the event they developed an endoscopically diagnosed UGI ulcer. Subjects who terminated early for reasons other than development of an endoscopically diagnosed UGI ulcer were to undergo an endoscopic examination at a termination visit that was conducted as soon as possible after administration of their final dose of study drug. The predefined population for primary analyses of ulcers was all subjects with ≧1 follow-up study endoscopy.
# [2] = tested on: subjects expected to require daily NSAID therapy; assay: REDUCE-2 study: endoscopically diagnosed UGI, gastric and duodenal ulcers; assay type: in vivo, human
# Procedure: as §1
# [3] = tested on: subjects expected to require daily NSAID therapy; assay: Pooled REDUCE-1 and REDUCE-2: UGI ulcers by subgroup; assay type: in vivo, human; conditions: for Subjects who developed an upper gastrointestinal ulcer: clinical studies of HZT-501; for Proportion of subjects who developed at least one UGI ulcer: pooled, Week 24 life table
# Source text: In addition to examining potential risk factors together in a statistical model, the effect of treatment was examined in the combined studies overall and within various subgroups of interest. These subgroups included age category (<65, […]), prior history of UGI ulcer (yes, no), use of low-dose aspirin (LDA) (yes, no), and gender. […] Treatment was the only factor included in the model.
# [4] = tested on: subjects who completed REDUCE-1 or REDUCE-2 without ulcer; conditions: human, in vivo, 28 weeks
# [5] = tested on: subjects expected to require daily NSAID therapy; assay: REDUCE-2 study: adverse events
# Source text: Randomization was stratified based on aspirin/anticoagulant therapy and prior ulcer history.
# Secondary endpoints were gastric ulcers, duodenal ulcers, and serious GI complications.
# [6] = crude proportion, listed as ibuprofen
# [7] = life table estimate, listed as ibuprofen
# [8] = REDUCE-1, early drop-outs imputed as treatment failures
# [9] = REDUCE-2, 24 weeks, crude proportion
# [10] = REDUCE-2, 24 weeks, crude proportion, listed as ibuprofen
# [11] = REDUCE-2, 24 weeks, life table estimate
# [12] = REDUCE-2, 24 weeks, life table estimate, listed as ibuprofen
# [13] = REDUCE-2, early terminations imputed as having an ulcer
smiles,measurement,setting,value
"CC(C)Cc1ccc(C(C)C(=O)O)cc1 (centres unmarked) [Ibuprofen, 2-(p-isobutylphenyl)propionic acid]",Proportion of subjects with Duodenal Ulcer,[1]; crude proportion,14/262 (5.3%);
same,Proportion of subjects with Gastric Ulcer,[1]; crude proportion,52/262 (19.8%);
same,Proportion of subjects with UGI Ulcer,[1]; crude proportion,61/262 (23.3%)*;
same,UGI Ulcer: Subjects with Low-dose Aspirin Use,[1]; crude proportion,10/32 (31.3%);
same,UGI Ulcer: Subjects with Prior Ulcer,[1]; crude proportion,4/15 (26.7%);
same,Proportion of subjects with Duodenal Ulcer,[1]; [6],5.3%
same,Proportion of subjects with Gastric Ulcer,[1]; [6],19.8%
same,Proportion of subjects with UGI Ulcer,[1]; [6],23.3%
same,Proportion of subjects with Duodenal Ulcer,[1]; life table estimate,7.1%
same,Proportion of subjects with Gastric Ulcer,[1]; life table estimate,25.3%
same,Proportion of subjects with UGI Ulcer,[1]; life table estimate,29.1%*
same,UGI Ulcer: Subjects with Low-dose Aspirin Use,[1]; life table estimate,33.3%
same,UGI Ulcer: Subjects with Prior Ulcer,[1]; life table estimate,27.3%
same,Proportion of subjects with Duodenal Ulcer,[1]; [7],7.1%
same,Proportion of subjects with Gastric Ulcer,[1]; [7],25.3%
same,Proportion of subjects with UGI Ulcer,[1]; [7],29.1%
same,"Crude ulcer rate, UGI ulcer",[1]; [8],30.2%
same,"Crude ulcer rate, gastric ulcers",[1]; [8],26.7%
same,"NSAID associated serious GI complications, % of subjects","[1]; REDUCE-1, secondary efficacy endpoint",none
same,Proportion of subjects with Duodenal Ulcer,[2]; [9],9/190 (4.7%);
same,Proportion of subjects with Gastric Ulcer,[2]; [9],34/190 (17.9%);
same,Proportion of subjects with UGI Ulcer,[2]; [9],38/190 (20%);
same,UGI Ulcer: Subjects with Low-dose Aspirin Use,[2]; [9],6/23 (26.1%);
same,UGI Ulcer: Subjects with Prior Ulcer,[2]; [9],2/11 (18.2%);
same,Proportion of subjects with Duodenal Ulcer,[2]; [10],4.7%
same,Proportion of subjects with Gastric Ulcer,[2]; [10],17.9%
same,Proportion of subjects with UGI Ulcer,[2]; [10],20.0%
same,Proportion of subjects with Duodenal Ulcer,[2]; [11],6.6%
same,Proportion of subjects with Gastric Ulcer,[2]; [11],19.7%
same,Proportion of subjects with UGI Ulcer,[2]; [11],22.6%
same,UGI Ulcer: Subjects with Prior Ulcer,[2]; [11],20.0%
same,Proportion of subjects with Duodenal Ulcer,[2]; [12],6.6%
same,Proportion of subjects with Gastric Ulcer,[2]; [12],19.7%
same,Proportion of subjects with UGI Ulcer,[2]; [12],22.6%
same,"Crude ulcer rate, UGI ulcers","[2]; REDUCE-2, early drop-outs imputed as treatment failures",25.3%
same,"Crude ulcer rate, duodenal ulcer",[2]; [13],10.1%
same,"Crude ulcer rate, gastric ulcer",[2]; [13],23.2%
same,Subjects who developed an upper gastrointestinal ulcer,[3]; subjects who used low-dose aspirin,35%
same,Subjects who developed an upper gastrointestinal ulcer,[3]; subjects with a prior history of gastrointestinal ulcer,24%
same,Proportion of subjects who developed at least one UGI ulcer,[3]; Age <65 years,26.3%
same,Proportion of subjects who developed at least one UGI ulcer,[3]; Age ≧65 years,26.6%
same,Proportion of subjects who developed at least one UGI ulcer,"[3]; Age ≧65 years, listed as ibuprofen",27%
same,Proportion of subjects who developed at least one UGI ulcer,[3]; Female,28.3%
same,Proportion of subjects who developed at least one UGI ulcer,[3]; Race Other,13.3%
same,Viral infection,[4],2.1 (1) % (n)
same,"AEs Leading to Discontinuation, Incidence (%)",[5],7.1%
same,"AEs by Severity: Life Threatening, Incidence (%)",[5],0.0%
same,"AEs by Severity: Moderate, Incidence (%)",[5],21.7%
same,"AEs by Severity: Severe, Incidence (%)",[5],6.6%
same,"Abdominal Pain Upper, Incidence (%)",[5],1.9%
same,"Any GI Event, Incidence (%)",[5],29.7* %
same,"Cardiac Disorders, Incidence (%)",[5],0.5%
same,"Constipation, Incidence (%)",[5],3.8%
same,"Deaths, Incidence %",[5],0/0.0%
same,"Diarrhea, Incidence (%)",[5],4.2%
same,"Dyspepsia, Incidence (%)",[5],8.5** %
same,"General Disorders/Administrative Site Conditions, Incidence (%)",[5],3.8%
same,"Hepatobiliary Disorders, Incidence (%)",[5],0.0%
same,"Hypertension, Incidence (%)",[5],1.9%
same,"Infections/Infestations, Incidence (%)",[5],19.3%
same,"Injury, Poisoning, Procedural Complications, Incidence (%)",[5],3.8%
same,"Investigations, Incidence (%)",[5],2.4%
same,"Musculoskeletal/connective Tissue Disorders, Incidence (%)",[5],5.2%
same,"Nausea, Incidence (%)",[5],5.2%
same,"Nervous System Disorders, Incidence (%)",[5],4.7%
same,"Renal and Urinary Disorders, Incidence (%)",[5],0.0%
same,"Respiratory, Thoracic and Mediastinal Disorders, Incidence (%)",[5],4.7%
same,"SAEs leading to discontinuation, Incidence %",[5],2/0.9%
same,"Subjects with at least one AE, Incidence (%)",[5],54.7%
same,"Total SAEs, Incidence %",[5],4/1.9%
same,"Withdrawals due to GI, Incidence (%)",[5],5.2*** %
